# Measured values: patent US20040101916A1, “Treatment of liver diseases” (priority 2002, published 2004)
# Columns and labels:
# GADD45β [1] = assay: Northern blot of GADD45β expression after SAMe treatment in CL-48 normal liver cells; assay type: cell-based; conditions: CL-48 cells, 0, 1.0 mM, 2.0 mM SAMe, 72 hours
# Experimental: (§1) CL-48 and HepG2 cells were treated with 0, 1.0 mM, and 2.0 mM SAMe. After 72 hours of treatment, Northern blot was performed to analyze the expression of GADD45β, using 18S RNA as an internal loading control.
# GADD45β [2] = assay: Northern blot of GADD45β expression after SAMe treatment in HepG2 cells; assay type: cell-based, human
# Experimental: as §1
# (§2) Expression of GADD45β after SAMe treatment under different p53 backgrounds was examined by Northern blot.
# GADD45β [3] = assay: Northern blot of GADD45β expression after SAMe treatment in Hep3B (p53 null); assay type: cell-based, human
# Text: as §2
# [4] = test system: CCAAT/NF-Y boxes of the GADD45β promoter region; assay: Gel retardation / super-shift assay, nuclear proteins of CL-48 cells on CCAAT/NF-Y boxes of the GADD45β promoter; assay type: cell-based; conditions: CL-48 nuclear proteins
# Experimental: End-labeled oligonucleotides corresponding to the CCAAT/NF-Y boxes of the GADD45β promoter region were incubated with the extracted nuclear proteins, and the binding complexes were then separated on a 6% retardation gel. Protein binding sites on the GADD45β promoter Pα region were identified using unlabeled oligonucleotide competitors and NF-Y antibodies.
# [5] = test system: NF-κB box of the GADD45β promoter region; assay: Gel retardation assay, nuclear proteins of CL-48 cells on NF-κB box of the GADD45β promoter; assay type: cell-based; conditions: CL-48 nuclear proteins, 48 hours after 2.0 mM SAMe or 200 mM alcohol, compared to non-treated control cells
# Experimental: Nuclear proteins were extracted as mentioned above. End-labeled oligonucleotides corresponding to the NF-κB box of the GADD45β promoter region were incubated with the extracted nuclear proteins, and the binding complexes were then separated on a 6% retardation gel.
# GADD45α = conditions: HepG2 clone, Northern blot
# Experimental: (§3) Expression of GADD45α and GADD45β after alcohol treatment was determined by Northern blot in HepG2 clone.
# GADD45β [6] = conditions: HepG2 clone, Northern blot
# Experimental: as §3
Structure (SMILES),induction of GADD45β expression (GADD45β [1]),"expression of GADD45β after SAMe treatment (GADD45β [2]; HepG2 (p53 wild type), different dose ranges)","induction of GADD45β expression (GADD45β [2]; HepG2 cells, 0, 1.0 mM, 2.0 mM SAMe, 72 hours)",expression of GADD45β after SAMe treatment (GADD45β [3]),"amount of major protein-binding band on CCAAT/NF-Y oligonucleotides ([4]; 48 hours after 2.0 mM SAMe, compared to non-treated controls)",super-shift of binding complex with NF-Y antibodies ([4]; SAMe-treated samples),amount of binding complexes on NF-κB box oligonucleotides [5],expression of GADD45α after alcohol treatment (GADD45α),expression of GADD45β after alcohol treatment (GADD45β [6])
"C[S+](CC[C@H](N)C(=O)O)C[C@H]1O[C@@H](n2cnc3c(N)ncnc32)[C@H](O)[C@@H]1O (stereo partly shown) [SAMe, S-Adenosylmethionine]","induced by a low dose of SAMe in CL-48 cells, and the induction reaches plateau at a higher dose of SAMe",up-regulated,the induction remains dose-dependent,failed to be induced,amount of a major band decreased,the binding complex is shifted,decreased amount of one binding complex and an increased amount of another binding complex,,
CCO [alcohol],,,,,,,decreased amount of one binding complex and an increased amount of another binding complex,increases in a dose-dependent manner,does not change
